Entries after “also recorded” stand apart in the source; their conditions may differ. Peptide text beside a SMILES is read from it.
Assays:
Type in all cases: in vivo
male C57BL/6J mice [1] = experiment: NOR in subchronic PCP-treated mice (Example 2); settings: for preference for novel versus familiar object, retention trial: Example 2
Method: (§1) Three cohorts of male C57BL/6J mice (2½-3 month old, Jackson, Mass., USA), N=40, 45, and 48 were used in Examples 1, 2, 3 respectively. Mice were group housed (five/cage) in a controlled environment held at 21±2° C. and 50±15% relative humidity with a 14:10 h light-dark period (lights on: 05:00 am). All experiments were conducted during the light phase. Food and water were available ad libitum. The mice were habituated to the colony upon arrival for a week, during which time, they were not handled. All experiments were conducted in accordance with Institutional Animal Care and Use Committee of Northwestern University, Chicago.
(§2) Rapastinel was obtained from SAI Life Sciences (India). PCP was a generous gift from National Institute of Drug Abuse. Ketamine was purchased from Sigma Aldrich (St. Louis, Mo.). Lurasidone was provided by Sumitomo Dainippon Pharma Co., Ltd. (Osaka, Japan). Rapastinel, PCP, and ketamine were dissolved in 0.9% sterile saline (Sal). PCP and ketamine were administered intraperitoneally (ip), at a volume of 10 mL/kg body weight. Rapastinel was given intravenously (iv). The dose of rapastinel (1.0 mg/kg) was chosen because it produced optimal enhancement in learning in both young adult and aged rats and in a trace eye blink conditioning task in rabbits. […] The dose for lurasidone (0.1 mg/kg) was chosen based on prior NOR studies in C57BL/6J mice which determined the effective dose of lurasidone to restore NOR in subchronic PCP-treated mice.
(§3) For acute drug treatments, rapastinel (1.0 mg/kg, iv), lurasidone (0.1 mg/kg, i.p.) or ketamine (30 mg/kg, ip) were administered 30 min prior to the acquisition trial of the NOR task (described below) to the subchronic ketamine or subchronic PCP-treated animals. For subchronic drug treatments, 7-10 mice/cohort were randomly assigned to Sal, PCP, or ketamine. The Sal-treated mice received 0.9% NaCl; the drug treatment groups received either PCP (10 mg/kg; ip), or ketamine (30 mg/kg; ip) twice daily for 7 days. This was followed by a 7 day washout period during which time, mice were left undisturbed in the home cage until initiation of habituation (see below).
NOR testing in mice was slightly modified from Hashimoto et al (Hashimoto K.; Fujita Y.; Shimizu E.; Iyo M. European Journal of Pharmacology 2005, 519:114-7). […] Similar observations were made when large objects were used. […] It was observed that C57BL/6J mice explored less when the duration of trials were 3 or 5. […] The NOR apparatus consisted of an open box made of Plexiglas (52 cm L; 52 cm W; 31 cm H) with white walls and a solid floor. The box was positioned approximately 30 cm above the floor, centered on a table such that the overhead lights could not provide a spatial cue. One day after the 7 day washout from subchronic drug treatment or Sal, mice were habituated to the empty NOR arena, as a group, for one hour, on each of three days prior to the acquisition trial. During the acquisition trial, the mice were allowed to explore two identical objects (e.g. A1 and A2) for 10 min. This was followed by a 24-hour inter-trial interval, after which the mice were returned to the home cage. […] Behavior was recorded on video for blind scoring of object exploration. […] The discrimination index (DI) [(time spent exploring the novel object—time spent exploring the familiar object)/total exploration time] was then calculated for retention trials. […]

male C57BL/6J mice [2] = experiment: Novel object recognition (NOR), acute drug treatment / acute ketamine-induced deficit (Example 1); settings: for discrimination index (DI) / NOR deficit: Example 1, FIG. 1; for preference for novel versus familiar object (exploration time), retention trial: Example 1
Method: as §1, §2, §3
(§4) NOR testing in mice was slightly modified from Hashimoto et al (Hashimoto K.; Fujita Y.; Shimizu E.; Iyo M. European Journal of Pharmacology 2005, 519:114-7). […] Similar observations were made when large objects were used. […] It was observed that C57BL/6J mice explored less when the duration of trials were 3 or 5. […] The NOR apparatus consisted of an open box made of Plexiglas (52 cm L; 52 cm W; 31 cm H) with white walls and a solid floor. The box was positioned approximately 30 cm above the floor, centered on a table such that the overhead lights could not provide a spatial cue. One day after the 7 day washout from subchronic drug treatment or Sal, mice were habituated to the empty NOR arena, as a group, for one hour, on each of three days prior to the acquisition trial. During the acquisition trial, the mice were allowed to explore two identical objects (e.g. A1 and A2) for 10 min. This was followed by a 24-hour inter-trial interval, after which the mice were returned to the home cage. During the retention trial, the mice were allowed to explore the familiar object (A) from the acquisition trial and a novel object (e.g. B). The location of the novel object in the retention trial was randomly assigned for each mouse tested using a pseudorandom schedule. […] Also, to avoid bias or olfactory trails, objects were used in triplicates, i.e. that the same object that was used in the acquisition trial was not presented in retention trial. Behavior was recorded on video for blind scoring of object exploration. Object exploration was defined as an animal licking, sniffing, or touching the object with the forepaws while sniffing. […] The discrimination index (DI) [(time spent exploring the novel object—time spent exploring the familiar object)/total exploration time] was then calculated for retention trials. […]

male C57BL/6J mice [3] = experiment: NOR in subchronic ketamine-treated mice (Examples 2 and 3)
Method: as §1, §2, §3, §4

[4] = acute drug plus sal, rapastinel 1.0 mg/kg, ketamine 30 mg/kg
[5] = acute drug plus sal, 30 min prior to acquisition trial, rapastinel 1.0 mg/kg iv, ketamine 30 mg/kg ip

SMILES | discrimination index (DI) (male C57BL/6J mice [1]; Example 2, FIG. 2, subchronic PCP alone, compared to sal plus sal) | preference for novel versus familiar object, retention trial (male C57BL/6J mice [1]; subchronic PCP 10 mg/kg ip twice daily 7 days, 7 day washout) | discrimination index (DI) / NOR deficit (male C57BL/6J mice [2]; [4]) | preference for novel versus familiar object (exploration time), retention trial (male C57BL/6J mice [2]; [5]) | discrimination index (DI) (male C57BL/6J mice [3]; Example 2, FIG. 2, subchronic ketamine alone, compared to sal plus sal) | preference for novel versus familiar object, retention trial (male C57BL/6J mice [3]; Example 2, subchronic ketamine 30 mg/kg ip twice daily 7 days, 7 day washout) | discrimination index (DI) (male C57BL/6J mice [3]; Example 3, FIG. 3, subchronic ketamine plus sal, compared to saline controls) | preference for novel versus familiar object, retention trial (male C57BL/6J mice [3]; Example 3, subchronic ketamine alone) | discrimination index (DI) / NOR deficit (male C57BL/6J mice [1]; Example 2, FIG. 2, acute rapastinel 1.0 mg/kg in subchronic PCP-treated mice) | discrimination index (DI) / NOR deficit (male C57BL/6J mice [1]; Example 2, FIG. 2, acute rapastinel 1.0 mg/kg in subchronic PCP-treated mice, listed as rap) | preference for novel versus familiar object, retention trial (male C57BL/6J mice [1]; acute rapastinel 1.0 mg/kg in subchronic PCP-treated mice) | discrimination index (DI) / NOR deficit (male C57BL/6J mice [2]; rapastinel 1.0 mg/kg plus acute ketamine 30 mg/kg) | discrimination index (DI) / NOR deficit (male C57BL/6J mice [2]; rapastinel 1.0 mg/kg plus acute ketamine 30 mg/kg, listed as Rap) | preference for novel versus familiar object (exploration time), retention trial (male C57BL/6J mice [2]; rapastinel 1.0 mg/kg prior to acute ketamine 30 mg/kg) | discrimination index (DI) / NOR deficit (male C57BL/6J mice [3]; Example 2, FIG. 2, acute rapastinel 1.0 mg/kg in subchronic ketamine-treated mice) | discrimination index (DI) / NOR deficit (male C57BL/6J mice [3]; Example 2, FIG. 2, acute rapastinel 1.0 mg/kg in subchronic ketamine-treated mice, listed as rap) | preference for novel versus familiar object, retention trial (male C57BL/6J mice [3]; Example 2, acute rapastinel 1.0 mg/kg in subchronic ketamine-treated mice) | discrimination index (DI) / NOR deficit (male C57BL/6J mice [3]; Example 3, FIG. 3, subchronic ketamine-treated mice given sub-effective dose rapastinel 0.3 mg/kg and/or sub-effective dose lurasidone 0.1 mg/kg) | preference for novel versus familiar object, retention trial (male C57BL/6J mice [3]; Example 3, subchronic ketamine-treated mice given sub-effective dose rapastinel 0.3 mg/kg and/or sub-effective dose lurasidone 0.1 mg/kg)
c1ccc(C2(N3CCCCC3)CCCCC2)cc1 [PCP, reference compound] | significantly reduced | abolished | – | – | – | – | – | – | – | – | – | – | – | – | – | – | – | – | –
CNC1(c2ccccc2Cl)CCCCC1=O (stereo not drawn) [ketamine, Ketamine, reference compound] | – | – | induced a significant NOR deficit; also recorded: significantly reduced | abolished | significantly reduced | abolished | significant reductions in the DI | abolished | – | – | – | – | – | – | – | – | – | – | –
CC(O)C(N)C(=O)N1CCCC1C(=O)N1CCCC1C(=O)NC(C(N)=O)C(C)O (stereo not drawn) [rapastinel, Rapastinel] (H-TPPT-NH2; configuration not given here) | – | – | did not induce NOR deficit | showed a clear preference for the novel compared to the familiar object | – | – | – | – | significantly increased | significantly reversed | explored the novel object significantly more compared to the familiar object | significantly prevented the acute ketamine-induced decrease in DI | significantly prevented the ket-induced NOR deficit | showed clear preference for the novel compared to the familiar object | significantly increased | significantly reversed | explored the novel object significantly more compared to the familiar object | neither drug above at these doses was effective; also recorded: significant reductions in the DI | abolished
